Laboratory results: the supplement of paper PMC10307832

Columns and labels:
Test in all cases: relative viability (nuclei count vs DMSO), 5 days (fraction); higher = more cells survive
VX-702 + Palbociclib = compound: NC(=O)c1ccc(N(C(N)=O)c2c(F)cccc2F)nc1-c1ccc(F)cc1F [VX-702] + CC(=O)c1c(C)c2cnc(Nc3ccc(N4CCNCC4)cn3)nc2n(C2CCCC2)c1=O [Palbociclib] (partner 0.5 µM)
In short: (§1)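 One day after seeding in 1536-well plates, lung cancer cell lines were dosed by pin tool. Dosing was either single-drug or a fixed anchor-drug dose plus five library-drug doses (not always all listed) in √10 steps. After 5 days, nuclei were stained in one fix-and-stain step and counted on 4× images, and relative viability is the nuclei count of treated wells over that of vehicle wells, given as the median of duplicate plates.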

VX-702 + Tozasertib = compound: NC(=O)c1ccc(N(C(N)=O)c2c(F)cccc2F)nc1-c1ccc(F)cc1F [VX-702] + Cc1cc(Nc2cc(N3CCN(C)CC3)nc(Sc3ccc(NC(=O)C4CC4)cc3)n2)n[nH]1 [Tozasertib] (partner 0.1 µM)
In short: as §1

VX-702 + Alpelisib = compound: NC(=O)c1ccc(N(C(N)=O)c2c(F)cccc2F)nc1-c1ccc(F)cc1F [VX-702] + Cc1nc(NC(=O)N2CCC[C@H]2C(N)=O)sc1-c1ccnc(C(C)(C)C(F)(F)F)c1 [Alpelisib] (partner 2 µM)
In short: as §1

VX-702 + Phenformin = compound: NC(=O)c1ccc(N(C(N)=O)c2c(F)cccc2F)nc1-c1ccc(F)cc1F [VX-702] + N=C(N)NC(=N)NCCc1ccccc1 [Phenformin] (partner 250 µM)
In short: as §1

Cell Line | relative viability (VX-702 + Palbociclib; first compound 0.02 µM) | relative viability (VX-702 + Palbociclib; first compound 0.2 µM) | relative viability (VX-702 + Palbociclib; first compound 0.6325 µM) | relative viability (VX-702 + Palbociclib; first compound 2 µM) | relative viability (VX-702 + Tozasertib; first compound 0.02 µM) | relative viability (VX-702 + Tozasertib; first compound 0.2 µM) | relative viability (VX-702 + Tozasertib; first compound 0.6325 µM) | relative viability (VX-702 + Tozasertib; first compound 2 µM) | relative viability (VX-702 + Alpelisib; first compound 0.02 µM) | relative viability (VX-702 + Alpelisib; first compound 0.2 µM) | relative viability (VX-702 + Alpelisib; first compound 0.6325 µM) | relative viability (VX-702 + Alpelisib; first compound 2 µM) | relative viability (VX-702 + Phenformin; first compound 0.02 µM) | relative viability (VX-702 + Phenformin; first compound 0.2 µM) | relative viability (VX-702 + Phenformin; first compound 0.6325 µM) | relative viability (VX-702 + Phenformin; first compound 2 µM)
201T | 0.349 | 0.345 | 0.347 | 0.336 | 0.959 | 0.921 | 0.937 | 0.914 | 0.997 | 1.04 | 1.03 | 1.02 | 0.43 | 0.457 | 0.453 | 0.434
A549 | – | – | – | – | – | – | – | – | 0.727 | 0.666 | 0.692 | 0.857 | 0.128 | 0.19 | 0.154 | 0.137
A-427 | 0.541 | 0.52 | 0.537 | 0.526 | 0.241 | 0.169 | 0.232 | 0.221 | 0.997 | 0.99 | 1.1 | 1.17 | 0.306 | 0.303 | 0.395 | 0.28
ABC-1 | 0.569 | 0.633 | 0.826 | 0.8 | 0.152 | 0.162 | 0.18 | 0.207 | 0.948 | – | 0.901 | 1 | 0.214 | 0.201 | 0.229 | 0.228
BEN | 0.51 | 0.467 | 0.413 | 0.514 | 0.532 | 0.432 | 0.481 | 0.55 | 0.823 | 0.912 | 0.919 | 1.18 | 0.263 | 0.252 | 0.228 | 0.236
CAL-12T | 0.427 | 0.507 | 0.496 | 0.347 | 0.369 | 0.31 | 0.273 | 0.398 | 1.22 | 1.27 | 1.16 | 1.24 | 0.699 | 0.55 | 0.609 | 0.632
COR-L23 | 0.271 | 0.312 | 0.323 | 0.341 | 0.202 | 0.231 | 0.171 | 0.244 | 0.947 | 0.831 | 0.841 | 0.986 | 0.484 | 0.492 | 0.437 | 0.494
COR-L 105 | 0.38 | 0.409 | 0.432 | 0.38 | 0.225 | 0.338 | 0.353 | 0.355 | 1.08 | 0.947 | 0.868 | 1.24 | 0.529 | 0.478 | 0.448 | 0.459
Calu-6 | – | – | – | – | – | – | – | – | 0.942 | 1.07 | 1 | 1.2 | – | – | – | –
ChaGo-K-1 | 0.942 | 0.881 | 0.893 | 0.946 | 0.214 | 0.23 | 0.223 | 0.225 | – | – | – | – | 0.528 | 0.462 | 0.506 | 0.499
EBC-1 | – | – | – | – | – | – | – | – | 0.777 | 0.835 | 0.687 | 0.892 | – | – | – | –
EKVX | 0.355 | 0.38 | 0.343 | 0.301 | 0.381 | 0.36 | 0.379 | 0.423 | 0.814 | 0.801 | 0.73 | 0.855 | 0.235 | 0.189 | 0.224 | 0.214
